According to US20070021419A1, “2-Aminophenyl-4-phenylpyrimidines as kinase inhibitors” (Cyclacel Limited, priority 2003, published 2007):

Key:
CDK2/cyclin E = CDK2/cyclin E (Homo sapiens, UniProt P24941); experiment: Kinase assay, radioactive phosphate incorporation, CDK2/cyclin E; format: biochemical; settings: 100 μM ATP, 30° C.; read-out: Kinase inhibition IC50 CDK2/cyclin E
Method: (§1) The compounds from the examples above were investigated for their ability to inhibit the enzymatic activity of various protein kinases. This was achieved by measurement of incorporation of radioactive phosphate from ATP into appropriate polypeptide substrates. Recombinant protein kinases and kinase complexes were produced or obtained commercially. Assays were performed using 96-well plates and appropriate assay buffers (typically 25 mM β-glycerophosphate, 20 mM MOPS, 5 MM EGTA, 1 mM DTT, 1 mM Na3VO3, pH 7.4), into which were added 2-4 μg of active enzyme with appropriate substrates. The reactions were initiated by addition of Mg/ATP mix (15 mM MgCl2+100 μM ATP with 30-50 kBq per well of [γ-^32P]-ATP) and mixtures incubated as required at 30° C. Reactions were stopped on ice, followed by filtration through p81 filterplates or GF/C filterplates (Whatman Polyfiltronics, Kent, UK). After washing 3 times with 75 mM aq orthophosphoric acid, plates were dried, scintillant added and incorporated radioactivity measured in a scintillation counter (TopCount, Packard Instruments, Pangbourne, Berks, UK). Compounds for kinase assay were made up as 10 mM stocks in DMSO and diluted into 10% DMSO in assay buffer.

A549 = experiment: 72-h MTT cytotoxicity assay, A549; format: cell-based; settings: Homo sapiens, read-out: 72-h MTT IC50 A549, A549 cell line
Method: (§2) The compounds from the examples above were subjected to a standard cellular proliferation assay using human tumour cell lines obtained from the ATCC (American Type Culture Collection, 10801 University Boulevard, Manessas, Va. 20110-2209, USA). Standard 72-h MTT (thiazolyl blue; 3-[4,5-dimethylthiazol-2-yl]-2,5-diphenyltetrazolium bromide) assays were performed. In short: cells were seeded into 96-well plates according to doubling time and incubated overnight at 37° C. Test compounds were made up in DMSO and a 1/3 dilution series prepared in 100 μL cell media, added to cells (in triplicates) and incubated for 72 ho at 37° C. MTT was made up as a stock of 5 mg/mL in cell media and filter-sterilised. Media was removed from cells followed by a wash with 200 μL PBS. MTT solution was then added at 20 μL per well and incubated in the dark at 37° C. for 4 h. MTT solution was removed and cells again washed with 200 μL PBS. MTT dye was solubilised with 200 μL per well of DMSO with agitation.

HT29 = experiment: 72-h MTT cytotoxicity assay, HT29; format: cell-based; settings: Homo sapiens, HT-29, read-out: 72-h MTT IC50 HT29, HT29 cell line
Method: as §2

Saos-2 = experiment: 72-h MTT cytotoxicity assay, Saos-2; format: cell-based; settings: Homo sapiens, read-out: 72-h MTT IC50 Saos-2, Saos-2 cell line
Method: as §2

[1] = tested on: transformed human cell lines (A549, HT29, Saos-2); experiment: 72-h MTT cytotoxicity assay, average of cell lines; format: cell-based; settings: read-out: 72-h MTT IC50 Average, average of A549, HT29, Saos-2
Method: as §2

CDK9/cyclin T1 = CDK9/cyclin T1 (Homo sapiens, UniProt P50750); experiment: Kinase assay, radioactive phosphate incorporation, CDK9/cyclin T1; format: biochemical; settings: 100 μM ATP, 30° C.; read-out: Kinase inhibition IC50 CDK9/cyclin T1
Chain of CDK9/cyclin T1 (P50750 whole entry, species assumed): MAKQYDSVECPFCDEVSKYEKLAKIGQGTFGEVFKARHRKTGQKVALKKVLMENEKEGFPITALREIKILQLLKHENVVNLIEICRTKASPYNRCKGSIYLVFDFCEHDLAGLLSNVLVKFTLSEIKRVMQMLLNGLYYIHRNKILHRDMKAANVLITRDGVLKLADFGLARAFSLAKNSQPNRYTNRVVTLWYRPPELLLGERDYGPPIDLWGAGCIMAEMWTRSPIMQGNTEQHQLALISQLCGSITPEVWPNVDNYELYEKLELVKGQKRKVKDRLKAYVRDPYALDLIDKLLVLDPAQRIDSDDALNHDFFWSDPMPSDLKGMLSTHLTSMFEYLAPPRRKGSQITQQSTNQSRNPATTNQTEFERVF
Chain of CDK9/cyclin T1 (O60563 whole entry partner, species assumed): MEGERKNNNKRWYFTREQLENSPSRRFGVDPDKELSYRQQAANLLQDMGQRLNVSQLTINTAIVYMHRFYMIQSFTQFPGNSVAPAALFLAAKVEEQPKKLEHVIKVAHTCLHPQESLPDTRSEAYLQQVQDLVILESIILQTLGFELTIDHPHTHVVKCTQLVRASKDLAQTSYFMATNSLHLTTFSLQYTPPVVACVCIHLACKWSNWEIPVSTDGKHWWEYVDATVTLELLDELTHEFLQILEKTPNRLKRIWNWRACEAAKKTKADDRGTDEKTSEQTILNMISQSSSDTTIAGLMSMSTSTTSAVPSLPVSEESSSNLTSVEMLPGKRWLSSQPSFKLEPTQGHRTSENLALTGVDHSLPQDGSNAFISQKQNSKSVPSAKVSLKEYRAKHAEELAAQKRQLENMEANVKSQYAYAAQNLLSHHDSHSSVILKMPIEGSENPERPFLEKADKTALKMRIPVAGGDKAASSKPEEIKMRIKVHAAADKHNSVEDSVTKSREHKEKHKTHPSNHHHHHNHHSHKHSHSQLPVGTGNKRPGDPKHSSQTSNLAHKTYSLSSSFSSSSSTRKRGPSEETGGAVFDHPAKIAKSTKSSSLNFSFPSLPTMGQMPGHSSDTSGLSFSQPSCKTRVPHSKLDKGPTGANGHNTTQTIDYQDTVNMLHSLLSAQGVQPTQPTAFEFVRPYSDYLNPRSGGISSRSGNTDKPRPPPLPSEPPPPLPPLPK
Method: as §1

CDK7/cyclin H = CDK7/cyclin H (Homo sapiens, UniProt P50613); experiment: Kinase assay, radioactive phosphate incorporation, CDK7/cyclin H; format: biochemical; settings: 100 μM ATP, 30° C.; read-out: Kinase inhibition IC50 CDK7/cyclin H
Chain of CDK7/cyclin H (P50613 whole entry, species assumed): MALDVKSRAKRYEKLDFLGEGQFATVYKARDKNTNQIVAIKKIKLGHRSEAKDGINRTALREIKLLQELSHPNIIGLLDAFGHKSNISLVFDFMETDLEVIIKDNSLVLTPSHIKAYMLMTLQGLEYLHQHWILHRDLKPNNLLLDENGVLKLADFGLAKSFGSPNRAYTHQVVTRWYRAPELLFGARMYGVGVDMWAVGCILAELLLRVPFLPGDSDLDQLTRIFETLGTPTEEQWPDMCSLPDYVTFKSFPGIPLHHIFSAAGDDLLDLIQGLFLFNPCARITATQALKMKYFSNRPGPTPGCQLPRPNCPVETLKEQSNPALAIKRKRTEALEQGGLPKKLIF
Chain of CDK7/cyclin H (P51946 whole entry partner, species assumed): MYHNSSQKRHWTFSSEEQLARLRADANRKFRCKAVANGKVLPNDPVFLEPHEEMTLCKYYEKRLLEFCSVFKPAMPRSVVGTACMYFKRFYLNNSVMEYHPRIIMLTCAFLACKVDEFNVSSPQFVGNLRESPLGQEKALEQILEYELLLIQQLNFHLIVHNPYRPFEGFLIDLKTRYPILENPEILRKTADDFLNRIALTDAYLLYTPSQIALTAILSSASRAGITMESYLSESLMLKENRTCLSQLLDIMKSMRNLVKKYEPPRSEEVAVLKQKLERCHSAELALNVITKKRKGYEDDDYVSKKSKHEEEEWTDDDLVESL
Method: as §1

GSK3β = GSK3β (Homo sapiens, UniProt P49841); experiment: Kinase assay, radioactive phosphate incorporation, GSK3β; format: biochemical; settings: 100 μM ATP, 30° C.; read-out: Kinase inhibition IC50 GSK3β
Chain of GSK3β (P49841 whole entry, species assumed): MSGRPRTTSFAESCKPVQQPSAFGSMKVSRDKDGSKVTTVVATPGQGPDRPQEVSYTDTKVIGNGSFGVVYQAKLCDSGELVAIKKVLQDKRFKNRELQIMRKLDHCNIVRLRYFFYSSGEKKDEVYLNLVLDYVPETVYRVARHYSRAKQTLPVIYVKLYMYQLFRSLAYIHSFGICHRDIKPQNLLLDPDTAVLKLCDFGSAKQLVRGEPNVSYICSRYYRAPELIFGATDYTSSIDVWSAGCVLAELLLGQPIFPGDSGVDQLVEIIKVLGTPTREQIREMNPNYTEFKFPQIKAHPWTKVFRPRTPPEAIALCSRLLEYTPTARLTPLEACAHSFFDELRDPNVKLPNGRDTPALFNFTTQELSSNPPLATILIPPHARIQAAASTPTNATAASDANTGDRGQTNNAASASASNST
Method: as §1

| IC50 (CDK2/cyclin E) | IC50 (CDK9/cyclin T1) | IC50 (CDK7/cyclin H) | IC50 (GSK3β) | Compound | IC50 (A549) | IC50 (HT29) | IC50 (Saos-2) | IC50 [1] |
| --- | --- | --- | --- | --- | --- | --- | --- | --- |
| 1.6 µM | – | – | – | O=[N+]([O-])c1cccc(-c2ccnc(Nc3ccc(O)cc3)n2)c1 [Compound 1, 4-[4-(3-Nitro-phenyl)-pyrimidin-2-ylamino]-phenol] | 14.5 µM | 22.9 µM | 44.2 µM | 27.2 ± 15.3 µM |
| 0.24 µM | – | – | – | CC(=O)N(C)c1cccc(-c2ccnc(Nc3ccc(O)cc3)n2)c1 [Compound 12, N-{3-[2-(4-Hydroxy-phenylamino)-pyrimidin-4-yl]-phenyl}-N-methyl-acetamide] | – | – | – | – |
| – | – | 2.5 µM | 0.055 µM | Nc1cccc(-c2ccnc(Nc3cccc([N+](=O)[O-])c3)n2)c1 [Compound 19, [4-(3-Amino-phenyl)-pyrimidin-2-yl]-(3-nitro-phenyl)-amine] | – | – | – | – |
| – | – | – | 4.5 µM | O=[N+]([O-])c1cccc(Nc2nccc(-c3ccc(Cl)c(Cl)c3)n2)c1 [Compound 31, [4-(3,4-Dichloro-phenyl)-pyrimidin-2-yl]-(3-nitro-phenyl)-amine] | – | – | – | – |
| 0.04 µM | 0.03 µM | 0.31 µM | 0.003 µM | O=[N+]([O-])c1cccc(Nc2nccc(-c3cccc(O)c3)n2)c1 [Compound 55, 3-[2-(3-Nitro-phenylamino)-pyrimidin-4-yl]-phenol] | – | – | – | – |
| 0.24 µM | 0.07 µM | 2.1 µM | 0.07 µM | Oc1cccc(Nc2nccc(-c3cccc(O)c3)n2)c1 [Compound 56] | – | – | – | – |
| 0.21 µM | 0.18 µM | 1.3 µM | 0.054 µM | Oc1cccc(-c2ccnc(Nc3cccc(F)c3)n2)c1 [Compound 57, 3-[2-(3-Fluoro-phenylamino)-pyrimidin-4-yl]-phenol] | – | – | – | – |
| 1.6 µM | 0.26 µM | 3.8 µM | 0.51 µM | CC(=O)Nc1cccc(-c2ccnc(Nc3cccc(CO)c3)n2)c1 [Compound 60, N-{3-[2-(3-Hydroxymethyl-phenylamino)-pyrimidin-4-yl]-phenyl}-acetamide] | – | – | – | – |
| 1.8 µM | – | – | – | Cc1ccc(C)c(-c2ccnc(Nc3cccc(O)c3)n2)c1 [Compound 62, 3-[4-(2,5-Dimethyl-phenyl)-pyrimidin-2-ylamino]-phenol] | – | – | – | – |
| 0.7 µM | – | – | 0.06 µM | O=[N+]([O-])c1cccc(-c2ccnc(Nc3cccc(O)c3)n2)c1 [Compound 64, 3-[4-(3-Nitro-phenyl)-pyrimidin-2-ylamino]-phenol] | – | – | – | – |
| 2.8 µM | – | – | 0.63 µM | CC(=O)Nc1cccc(-c2ccnc(Nc3ccccc3)n2)c1 [Compound 66, N-[3-(2-Phenylamino-pyrimidin-4-yl)-phenyl]-acetamide] | – | – | – | – |
| 0.78 µM | 0.16 µM | 4.4 µM | 0.15 µM | CC(=O)Nc1cccc(-c2ccnc(Nc3cccc(O)c3)n2)c1 [Compound 67, N-{3-[2-(3-Hydroxy-phenylamino)-pyrimidin-4-yl]-phenyl}-acetamide] | – | – | – | – |
| 2.7 µM | – | – | – | COc1cc(Nc2nccc(-c3cccc(NC(C)=O)c3)n2)cc(OC)c1 [Compound 68, N-{3-[2-(3,5-Dimethoxy-phenylamino)-pyrimidin-4-yl]-phenyl}-acetamide] | – | – | – | – |
| 0.31 µM | 0.04 µM | 0.55 µM | 0.14 µM | CC(=O)Nc1cccc(-c2ccnc(Nc3cccc([N+](=O)[O-])c3)n2)c1 [Compound 69, N-{3-[2-(3-Nitro-phenylamino)-pyrimidin-4-yl]-phenyl}-acetamide] | – | – | – | – |
| – | – | 3.8 µM | 0.05 µM | COc1ccc(Nc2nccc(-c3cccc(O)c3)n2)cn1 [Compound 74, 3-[2-(6-Methoxy-pyridin-3-ylamino)-pyrimidin-4-yl]-phenol] | – | – | – | – |
| – | 0.003 µM | – | 0.07 µM | COc1cccc(-c2ccnc(Nc3cccc([N+](=O)[O-])c3)n2)c1 [Compound 87, [4-(3-Methoxy-phenyl)-pyrimidin-2-yl]-(3-nitro-phenyl)-amine] | – | – | – | – |
| – | 0.16 µM | – | 0.27 µM | O=[N+]([O-])c1cccc(Nc2nccc(-c3cccc(C(F)(F)F)c3)n2)c1 [Compound 97, (3-Nitro-phenyl)-[4-(3-trifluoromethyl-phenyl)-pyrimidin-2-yl]-amine] | – | – | – | – |
| – | 0.04 µM | – | 0.14 µM | COc1ccc(-c2ccnc(Nc3cccc(F)c3)n2)cc1 [Compound 119, (3-Fluoro-phenyl)-[4-(4-methoxy-phenyl)-pyrimidin-2-yl]-amine] | – | – | – | – |

The next lines start with the molecule.

| Compound | IC50 (CDK2/cyclin E) | IC50 (CDK9/cyclin T1) | IC50 (CDK7/cyclin H) | IC50 (GSK3β) | IC50 (A549) | IC50 (HT29) | IC50 (Saos-2) | IC50 [1] |
| --- | --- | --- | --- | --- | --- | --- | --- | --- |
| COCCOc1ccc(Nc2nccc(-c3cccc(N)c3)n2)cc1 [Compound 3, [4-(3-Amino-phenyl)-pyrimidin-2-yl]-[4-(2-methoxy-ethoxy)-phenyl]-amine] | – | 0.018 µM | – | – | 1.8 µM | 3.6 µM | 5.2 µM | 3.5 ± 1.7 µM |
| Oc1cccc(Nc2nccc(-c3ccc(Cl)c(Cl)c3)n2)c1 [Compound 22, 3-[4-(3,4-Dichloro-phenyl)-pyrimidin-2-ylamino]-phenol] | – | – | – | – | 43.5 µM | 85.2 µM | 100 µM | 76.2 ± 29.3 µM |
| CCN(C(C)=O)c1cccc(-c2ccnc(Nc3ccc([N+](=O)[O-])cc3)n2)c1 [Compound 24, N-Ethyl-N-{3-[2-(4-nitro-phenylamino)-pyrimidin-4-yl]-phenyl}-acetamide] | – | – | – | – | 100 µM | 7.8 µM | 80.4 µM | 62.7 ± 48.6 µM |
| O=[N+]([O-])c1ccc(Nc2nccc(-c3cccc(Cn4cncn4)c3)n2)cc1 [Compound 41, (4-Nitro-phenyl)-[4-(3-[1,2,4]triazol-1-ylmethyl-phenyl)-pyrimidin-2-yl]-amine] | 0.42 µM | 0.92 µM | 5.5 µM | 0.043 µM | – | – | – | – |
| COc1ccc(Nc2nccc(-c3ccc(Cl)c(Cl)c3)n2)cn1 [Compound 49, [4-(3,4-Dichloro-phenyl)-pyrimidin-2-yl]-(6-methoxy-pyridin-3-yl)-amine] | – | – | – | 5.2 µM | – | – | – | – |
| COc1ccc(OC)c(-c2ccnc(Nc3ccc(OC)nc3)n2)c1 [Compound 52, [4-(2,5-Dimethoxy-phenyl)-pyrimidin-2-yl]-(6-methoxy-pyridin-3-yl)-amine] | – | 16 µM | – | – | 20.5 µM | 10.8 µM | 14.9 µM | 15.4 ± 4.9 µM |
| Cc1ccc(C)c(-c2ccnc(Nc3cccc([N+](=O)[O-])c3)n2)c1 [Compound 61, [4-(2,5-Dimethyl-phenyl)-pyrimidin-2-yl]-(3-nitro-phenyl)-amine] | 1.3 µM | – | – | 0.57 µM | – | – | – | – |
| CC(=O)N(Cc1cccc(-c2ccnc(Nc3cccc([N+](=O)[O-])c3)n2)c1)C(C)C [Compound 78, N-Isopropyl-N-{3-[2-(3-nitro-phenylamino)-pyrimidin-4-yl]-benzyl}-acetamide] | – | – | – | – | 3.7 µM | 0.96 µM | 5.4 µM | 3.4 ± 2.2 µM |
| CN(Cc1cccc(-c2ccnc(Nc3cccc([N+](=O)[O-])c3)n2)c1)S(=O)(=O)c1cccc([N+](=O)[O-])c1 [Compound 85, N-Methyl-3-nitro-N-{3-[2-(3-nitro-phenylamino)-pyrimidin-4-yl]-benzyl}-benzenesulfonamide] | – | 0.4 µM | – | – | 76.9 µM | 10.4 µM | 44.6 µM | 44 ± 33.3 µM |
| OCC1CCCCN1Cc1cccc(-c2ccnc(Nc3ccc(O)cc3)n2)c1 (centres unmarked) [Compound 106, 4-{4-[3-(2-Hydroxymethyl-piperidin-1-ylmethyl)-phenyl]-pyrimidin-2-ylamino}-phenol] | – | 0.19 µM | 1.7 µM | – | – | – | – | – |
| OCc1cc(CO)cc(Nc2nccc(-c3cccc(CN4CCCCC4CO)c3)n2)c1 (centres unmarked) [Compound 107, (1-{3-[2-(3,5-Bis-hydroxymethyl-phenylamino)-pyrimidin-4-yl]-benzyl}-piperidin-2-yl)-methanol] | – | 0.65 µM | 1.4 µM | – | – | – | – | – |
| O=[N+]([O-])c1cccc(Nc2nccc(-c3cc(F)ccc3F)n2)c1 [Compound 123, [4-(2,5-Difluoro-phenyl)-pyrimidin-2-yl]-(3-nitro-phenyl)-amine] | – | 0.17 µM | – | – | – | – | – | – |
